What was measured:
Assay type in all cases: in vivo
[1] = system: Echinochloa crus-galli (ECHCG); test: Pre-emergence herbicidal glasshouse test, Echinochloa crus-galli; details: Echinochloa crus-galli, 312 h, rate 250 g/ha, evaluated after 13 days, scale 100 = total damage to plant, 0 = no damage
Method: (§1) Seeds of a variety of test species were sown in standard soil in pots. After cultivation for one day (pre-emergence) or after 8 days cultivation (post-emergence) under controlled conditions in a glasshouse (at 24/16° C., day/night; 14 hours light; 65% humidity), the plants were sprayed with an aqueous spray solution derived from the formulation of the technical active ingredient in acetone/water (50:50) solution containing 0.5% Tween 20 (polyoxyethelyene sorbitan monolaurate, CAS RN 9005-64-5). The test plants were then grown in a glasshouse under controlled conditions in a glasshouse (at 24/16° C., day/night; 14 hours light; 65% humidity) and watered twice daily. After 13 days for pre and post-emergence, the test was evaluated ([…] to plant; 0=no damage to plant).
(§2) Setaria faberi (SETFA), Lolium perenne (LOLPE), Alopecurus myosuroides (ALOMY), Echinochloa crus-galli (ECHCG) and Avena fatua (AVEFA).

Avena fatua (AVEFA) [2] = test: Post-emergence herbicidal glasshouse test, Avena fatua; details: Avena fatua, 312 h, rate 250 g/ha, evaluated after 13 days, scale 100 = total damage to plant, 0 = no damage
Method: as §1, §2

Lolium perenne (LOLPE) [3] = test: Pre-emergence herbicidal glasshouse test, Lolium perenne; details: 312 h, rate 250 g/ha, evaluated after 13 days, scale 100 = total damage to plant, 0 = no damage
Method: as §1, §2

Lolium perenne (LOLPE) [4] = test: Post-emergence herbicidal glasshouse test, Lolium perenne; details: 312 h, rate 250 g/ha, evaluated after 13 days, scale 100 = total damage to plant, 0 = no damage
Method: as §1, §2

[5] = system: Alopecurus myosuroides (ALOMY); test: Post-emergence herbicidal glasshouse test, Alopecurus myosuroides; details: Alopecurus myosuroides, 312 h, rate 250 g/ha, evaluated after 13 days, scale 100 = total damage to plant, 0 = no damage
Method: as §1, §2

[6] = system: Echinochloa crus-galli (ECHCG); test: Post-emergence herbicidal glasshouse test, Echinochloa crus-galli; details: Echinochloa crus-galli, 312 h, rate 250 g/ha, evaluated after 13 days, scale 100 = total damage to plant, 0 = no damage
Method: as §1, §2

Avena fatua (AVEFA) [7] = test: Pre-emergence herbicidal glasshouse test, Avena fatua; details: Avena fatua, 312 h, rate 250 g/ha, evaluated after 13 days, scale 100 = total damage to plant, 0 = no damage
Method: as §1, §2

[8] = system: Alopecurus myosuroides (ALOMY); test: Pre-emergence herbicidal glasshouse test, Alopecurus myosuroides; details: Alopecurus myosuroides, 312 h, rate 250 g/ha, evaluated after 13 days, scale 100 = total damage to plant, 0 = no damage
Method: as §1, §2

Compound | pest or weed control at 250 g/ha [1] | pest or weed control at 250 g/ha (Avena fatua (AVEFA) [2]) | pest or weed control at 250 g/ha (Lolium perenne (LOLPE) [3]) | pest or weed control at 250 g/ha (Lolium perenne (LOLPE) [4]) | pest or weed control at 250 g/ha [5] | pest or weed control at 250 g/ha [6] | pest or weed control at 250 g/ha (Avena fatua (AVEFA) [7]) | pest or weed control at 250 g/ha [8]
CCc1cc(-c2ccc(Cl)cc2F)ccc1C1=C(O)[C@@]2(C)CC[C@H](O2)C1=O (racemic) [Compound A-14] | 80% | 100% | 80% | 100% | 80% | 100% | 50% | 50%
Cc1cc(-c2ccc(Cl)cc2F)cc(C)c1C1=C(O)[C@@]2(C)CC[C@H](O2)C1=O (racemic) [Compound A-53] | 100% | 80% | 90% | 100% | 90% | 100% | 60% | 50%
CCc1cc(-c2ccc(Cl)cc2Cl)ccc1C1=C(O)[C@@]2(C)CC[C@H](O2)C1=O [Compound A-13] | 50% | 80% | 20% | 100% | 70% | 100% | 0% | 0%
CCc1cc(-c2ccc(Cl)cc2)ccc1C1=C(O)C(C)(C)OC(C)(C)C1=O [Compound A-35] | 90% | 80% | 80% | 90% | 100% | 100% | 40% | 50%
CCc1cc(-c2ccc(Cl)cc2Cl)ccc1C1=C(O)C(C)(C)OC(C)(C)C1=O [Compound A-36] | 0% | 20% | 0% | 40% | 30% | 60% | 0% | 0%
CCc1cc(-c2ccc(Cl)c(Cl)c2)ccc1C1=C(O)C(C)(C)OC(C)(C)C1=O [Compound A-38] | 50% | 50% | 70% | 70% | 80% | 80% | 0% | 0%
CCc1cc(-c2ccc(Cl)s2)ccc1C1=C(O)C(C)(C)OC(C)(C)C1=O [Compound A-41] | 0% | 0% | 20% | 60% | 50% | 70% | 30% | 0%
CCc1cc(-c2ccc(Cl)c(F)c2)ccc1C1=C(O)C(C)(C)OC(C)(C)C1=O [Compound A-42] | 90% | 80% | 90% | 90% | 90% | 100% | 20% | 10%
CCc1cc(-c2ccc(Cl)cn2)ccc1C1=C(O)C(C)(C)OC(C)(C)C1=O [Compound A-43] | 70% | 70% | 50% | 80% | 80% | 100% | 30% | 20%
CCc1cc(-c2ccc(Cl)c(F)c2Cl)ccc1C1=C(O)C(C)(C)OC(C)(C)C1=O [Compound A-46] | 30% | 0% | 40% | 40% | 50% | 80% | 0% | 0%

Reference: patent US8895761B2, “4-phenylpyrane-3,5-diones, 4-phenylthiopyrane-3,5-diones and 2-phenylcyclohexane-1,3,5-triones as herbicides” (Syngenta Limited, priority 2007, dated 2014)
